Assay results from US5846988A, “Thiazolidine-4-carboxylic acid derivatives as cytoprotective agents” (Alcon Laboratories, Inc., priority 1997, dated 1998).
Where two headings read alike, the source gives them in different places.

How the values were obtained:
bovine retinal pieces = assay: Inhibition of lipid peroxide formation (TBARS) in hypoxic/reoxygenated bovine retinal pieces; assay type: cell-based; details: Bos taurus, hypoxia 1 h, test agent added after 50 min, reoxygenation 1 h; for inhibition at 100 µM: 0.1 mM, read-out: % Inhibition of TBARS Production (0.1 mM); for IC50: read-out: IC50 (inhibition of TBARS production)
Method: (§1) Evaluation of Cytoprotective Ability
Inhibition of lipid peroxide formation by representative compounds of the present invention as compared with the cysteine prodrug, 2-oxo-4-thiazolidine carboxylic acid, (Sigma Chemical Company, St Louis Mo.) is shown in Table 1 below. The cytoprotective effect of the compound was measured using bovine retinal pieces. Retinal tissues were incubated in hypoxic media for 1 h. After 50 min. of hypoxia the test agents were added to the media to allow 10 min. for the drug to diffuse into the tissue prior to reoxygenation. The vehicle by itself, was added to the non-drug group. Following the incubation period, tissue was reoxygenated for 1 h. Lipid peroxidation was assessed by the formation of thiobarbituric acid reacting substances (TBARS). The tissues were homogenized and added to the trichloroacetic acid-thiobarbituric acid reagent and heated in the presence of BHT. The homogenate was filtered and the absorbance of the supernant was measured spectrophotometrically. A double derivative technique was used to calculate the concentration of TBARS present in each sample. Quantiation was based on a molar extinction coefficient of 1.56×10^5.

[1] = system: excised pigmented rabbit lenses; assay: Inhibition of lens changes caused by oxidative damage (diquat-exposed excised pigmented rabbit lenses; GSH loss and MDA formation); assay type: cell-based; details: Oryctolagus cuniculus, 1 mM test compound, 1 mM diquat, 3 h at 37° C.
Method: as §1
Inhibition of lens changes caused by oxidative damage by representative compounds of the present invention as compared with the cysteine prodrug, 2-oxo-4-thiazolidine carboxylic acid, (Sigma Chemical Company, St Louis Mo.) is shown in Table 2 below. The cytoprotective effect was measured using excised pigmented rabbit lenses exposed to diquat using the method of Bhuyan (Free Radical Biology & Medicine, volume 12, pages 251-261, 1992). Normal lenses were extracted from the eyes immediately after sacrificing the pigmented rabbits. The lens were incubated in modified Krebs-Ringers bicarbonate medium containing 1 mM diquat dibromide monohydrate (Imperial Chemical Industries Ltd., London) and the test compound (1 mM). A non-test drug containing group was used as control. The lenses were incubated for 3 h at 37° C. in a shaking water bath. At the end of the incubation period each lens was removed and homogenated. Glutathione (GSH) and maliondialdehyde (MDA) levels were established by treating the supernatant with trichloracetic acid to precipitate proteins, and then using aliquots of the TCA supernatant to determine glutathione and MDA levels according to standard procedures. Degree of protection was measured as inhibition of GSH loss and inhibition of malondialdehyde formation.

[2] = read-out: % Inhibition GSH loss
[3] = read-out: % Inhibition MDA formation

Question: What does the source list for `O=C1NC(C(=O)O)CS1` (stereo not drawn) [2-oxo-4-thiazolidine carboxylic acid, reference compound]?
Answer: inhibition at 100 µM (bovine retinal pieces): -38%; inhibition at 1000 µM [1, 2]: 9.4%; inhibition at 1000 µM [1, 3]: 28%

Question: For `CC(C)(C)c1cc(C2N[C@H](C(=O)O)CS2)cc(C(C)(C)C)c1O` (stereo partly drawn) [Example 1, (4R)-2-(3,5-di-tert-butyl-4-hydroxyphenyl)-4-thiazolidine carboxylic acid], which inhibition at 100 µM (bovine retinal pieces) is on record?
Answer: 95%

Question: What about the IC50 (bovine retinal pieces) of the same compound?
Answer: 0.05 µM

Question: And the inhibition at 1000 µM [1, 2]?
Answer: 40%

Question: And the inhibition at 1000 µM [1, 3]?
Answer: 76%

Question: Which inhibition at 100 µM (bovine retinal pieces) does the source give for `Cc1c(C)c2c(c(C)c1O)CCC(C)(C1N[C@H](C(=O)O)CS1)O2` (stereo partly drawn) [Example 2, (4R)-2-(6-hydroxy-2,5,7,8-tetramethyl-3,4-dihydro-2H-benzo[1,2-b]pyran-2-yl)-4-thiazolidine carboxylic acid] here?
Answer: 90%

Question: What about the IC50 (bovine retinal pieces) of the same compound?
Answer: 3 µM
